The NIST ThermoML archive (doi:10.1021/je060271a)

Settings: 303.15 K, Liquid, Vibrating tube method

CCCCCCCC(=O)OCC(COC(=O)CCCCCCC)(COC(=O)CCCCCCC)COC(=O)CCCCCCC [pentaerythritol tetraoctanoate]
Settings	mass density [kg/m3]
28411 kPa	972
28450 kPa	971.9
28485 kPa	972
28563 kPa	972.1
28635 kPa	972
28718 kPa	972.1
28794 kPa	972.2
28833 kPa	972.2
28858 kPa	972
28881 kPa	972.2
28903 kPa	972.2
28932 kPa	972.2
28954 kPa	972.3
28977 kPa	972.2
29007 kPa	972.1
29030 kPa	972.2
29057 kPa	972.3
29081 kPa	972.3
29107 kPa	972.3
29129 kPa	972.3
29159 kPa	972.2
29182 kPa	972.4
29208 kPa	972.2
29237 kPa	972.4
29263 kPa	971.8
29291 kPa	972.4
29316 kPa	972.4
29341 kPa	972.6
29366 kPa	972.4
29397 kPa	972.5
29422 kPa	972.5
29447 kPa	972.5
29476 kPa	972.5
29501 kPa	972.6
29527 kPa	972.6
29551 kPa	972.5
29579 kPa	972.5
29610 kPa	972.6
29627 kPa	972.6
29648 kPa	972.6
29671 kPa	972.6
29696 kPa	972.7
29725 kPa	972.7
29750 kPa	972.6
29775 kPa	972.6
29807 kPa	972.8
29827 kPa	972.7
29857 kPa	972.7
29882 kPa	972.8
29912 kPa	972.7
29937 kPa	972.6
29963 kPa	972.7
29993 kPa	972.9
30018 kPa	972.7
30044 kPa	972.8
30069 kPa	972.8
30100 kPa	972.9
30125 kPa	972.8
30151 kPa	972.8
30183 kPa	972.9
30209 kPa	973
30234 kPa	973
30260 kPa	973
30291 kPa	972.9
30317 kPa	973
30343 kPa	972.9
30374 kPa	973
30400 kPa	972.9
30431 kPa	973.1
30457 kPa	973
30483 kPa	973.1
30510 kPa	973.1
30541 kPa	973
30568 kPa	972.9
30595 kPa	973.1
30626 kPa	973.2
30652 kPa	973.1
30685 kPa	973.2
30711 kPa	973.2
30738 kPa	973.3
30765 kPa	973.1
30797 kPa	973.2
30824 kPa	973.2
30852 kPa	973.1
30884 kPa	973.2
30911 kPa	973.4
30938 kPa	973.2
30971 kPa	973.2
30998 kPa	973.3
31025 kPa	973.3
31057 kPa	973.4
31085 kPa	973.5
31113 kPa	973.5
31145 kPa	973.5
31172 kPa	973.6
31206 kPa	973.4
31234 kPa	973.5
31261 kPa	973.5
31290 kPa	973.5
31323 kPa	973.5
31351 kPa	973.5
31380 kPa	973.6
31413 kPa	973.5
31442 kPa	973.6
31469 kPa	973.7
31503 kPa	973.6
31532 kPa	973.7
31560 kPa	973.7
31589 kPa	973.6
31624 kPa	973.7
31653 kPa	973.6
31681 kPa	973.8
31715 kPa	973.8
31744 kPa	973.7
31773 kPa	973.7
31808 kPa	973.8
31836 kPa	973.7
31865 kPa	973.8
31900 kPa	973.8
31929 kPa	973.8
31958 kPa	973.8
31994 kPa	973.8
32025 kPa	973.9
32055 kPa	973.9
32084 kPa	973.8
32120 kPa	973.9
32150 kPa	974
32179 kPa	973.9
32215 kPa	973.9
32244 kPa	974
32274 kPa	974
32311 kPa	974
32340 kPa	974
32370 kPa	974.1
32407 kPa	974
32432 kPa	974.1
32469 kPa	974.1
32499 kPa	974.2
32535 kPa	974.2
32566 kPa	974.2
32596 kPa	974.2
32626 kPa	974.2
32663 kPa	974.2
32693 kPa	974.1
32730 kPa	974.3
32761 kPa	974.3
32792 kPa	974.3
32829 kPa	974.3
